Assay results published in US20190169221A1, “SUBSTITUTED NUCLEOSIDES, NUCLEOTIDES AND ANALOGS THEREOF” (Janssen BioPharma, Inc., priority 2016, published 2019).
Read-outs that look alike come from different tables or passages of the source.

How the values were obtained:
[1] = test system: Dengue virus type 2 strain New Guinea C (NG-C); test: Dengue viral assay (cytopathic effect, Huh-7.5 cells); format: cell-based; conditions: read-out: Dengue NGC EC50
Procedure: The Dengue virus type 2 strain New Guinea C (NG-C) and the Dengue virus type 4 strain H241 were purchased from ATCC (Manassas, Va.; item numbers VR-1584 and VR-1490, respectively). The Zika virus strain MR766 was purchased from ATCC (item #VR-1838) and the Zika virus strain IbH 30656 was purchased from BEI Resources (Manassas, Va.; item number NR-500066). 24 h prior to dosing, Huh-7.5 cells were plated in 96 well plates at a density of 1.5×10^5/mL in DMEM medium supplemented with 10% fetal bovine serum, 1% HEPES buffer, 1% Penicillin/Streptomycin and 1% non-essential amino acids (all Mediatech, Manassas, Va.). At the day of infection, serially diluted compounds were added to cells and incubated for 24 h. After the end of the 24 h pre-incubation period, cells were infected with either Dengue virus type 2 NG-C, Dengue virus type 4 H241, Zika virus strain MR766 or Zika virus strain IbH 30656. The virus inoculum was selected to cause 80-90% cytopathic effect in four (Zika) to five (Dengue) days. Infected cells were incubated for four to five days at 37° C., 5% CO2. To develop the assay, 100 μL media was replaced with 100 μl CellTiter-Glo® reagent (Promega, Madison, Wis.) and incubated for 10 mins at R.T. Luminescence was measured on a Victor ×3 multi-label plate reader. Potential compound cytotoxicity was determined using uninfected parallel cultures.

Human rhinovirus 1B = test: Picornavirus / enterovirus assay, HRV 1B (HeLa-OHIO cells); format: cell-based; conditions: read-out: HRV 1B EC50
[2] = biological target: human rhinovirus 16 polymerase (HRV16pol) (Human rhinovirus 16, UniProt Q82122); test: Picornavirus polymerase inhibition assay; format: biochemical; conditions: triphosphates, read-out: Viral Polymerase Inhibition IC50 Picornavirus
human rhinovirus 16 polymerase (HRV16pol), sequence (Q82122 1694-2153 limits assumed): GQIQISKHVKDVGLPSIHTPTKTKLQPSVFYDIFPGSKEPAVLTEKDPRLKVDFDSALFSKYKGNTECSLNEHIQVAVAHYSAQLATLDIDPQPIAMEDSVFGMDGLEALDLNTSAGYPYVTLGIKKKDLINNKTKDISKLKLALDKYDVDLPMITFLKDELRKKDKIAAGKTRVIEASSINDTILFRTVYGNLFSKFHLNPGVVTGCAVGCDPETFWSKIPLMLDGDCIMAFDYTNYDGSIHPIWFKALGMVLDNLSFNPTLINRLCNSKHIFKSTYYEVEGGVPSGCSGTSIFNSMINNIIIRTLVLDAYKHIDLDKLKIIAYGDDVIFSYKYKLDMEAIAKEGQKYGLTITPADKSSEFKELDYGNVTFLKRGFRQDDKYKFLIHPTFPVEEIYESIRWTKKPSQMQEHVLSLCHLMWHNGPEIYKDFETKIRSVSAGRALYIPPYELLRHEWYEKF
Procedure: The enzyme activity of human rhinovirus 16 polymerase (HRV16pol) was measured as an incorporation of tritiated NMP into acid-insoluble RNA products. hV16pol assay reactions contained […] recombinant enzyme, 50 nM heteropolymeric RNA, about 0.5 μCi tritiated NTP, 0.1 mM of competing cold NTP, 40 mM Tris-HCl (pH 7.0), […] dithiothreitol and 0.5 mM MgCl2. Standard reactions were incubated for 2.5 h at 30° C., in the presence of increasing concentration of inhibitor. At the end of the reaction, RNA was precipitated with 10% TCA and acid-insoluble RNA products were filtered on a size exclusion 96-well plate. After washing of the plate, scintillation liquid was added and radiolabeled RNA products were detected using standard procedures with a Trilux Microbeta scintillation counter. The compound concentration at which the enzyme-catalyzed rate was reduced by 50% (IC50) was calculated by fitting the data to a non-linear regression (sigmoidal).

NS5B-BK (Delta-21) = NS5B-BK (Delta-21) (Hepatitis C virus genotype 1b, UniProt P26663); test: biochemical; parameters: species or system HCV
NS5B-BK (Delta-21), sequence (P26663 2420-2989 limits assumed): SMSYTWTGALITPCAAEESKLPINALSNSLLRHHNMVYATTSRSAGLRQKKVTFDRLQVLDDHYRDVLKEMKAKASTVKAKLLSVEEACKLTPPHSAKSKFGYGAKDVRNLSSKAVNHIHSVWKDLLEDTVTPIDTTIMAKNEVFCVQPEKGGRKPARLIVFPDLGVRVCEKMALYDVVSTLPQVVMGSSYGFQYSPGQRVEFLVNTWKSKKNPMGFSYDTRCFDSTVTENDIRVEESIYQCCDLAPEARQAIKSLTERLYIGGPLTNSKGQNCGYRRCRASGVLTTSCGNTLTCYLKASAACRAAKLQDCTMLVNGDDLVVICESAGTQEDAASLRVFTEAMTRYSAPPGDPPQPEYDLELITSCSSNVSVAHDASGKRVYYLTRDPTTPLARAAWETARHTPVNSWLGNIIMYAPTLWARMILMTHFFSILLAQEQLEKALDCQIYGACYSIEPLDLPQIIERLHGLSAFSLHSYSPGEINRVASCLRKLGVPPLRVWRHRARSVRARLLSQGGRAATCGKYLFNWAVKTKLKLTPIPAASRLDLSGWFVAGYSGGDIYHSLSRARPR

Dengue viral polymerase = Dengue viral polymerase (Dengue virus type 2, UniProt P14340); test: biochemical; conditions: triphosphates; read-out: Viral Polymerase Inhibition IC50 Dengue
[3] = Huh7.5, Dengue virus type 2 (NG-C strain)
[4] = Rhinovirus A, HeLa-OHIO cells, 33° C.
[5] = Dengue virus type 2 (NG-C strain)

Molecule | EC50 [1, 3] | EC50 (Human rhinovirus 1B; [4]) | IC50 [2] | IC50 (NS5B-BK (Delta-21)) | IC50 (Dengue viral polymerase) | further results
C[C@@]1(O)[C@H](O)[C@@H](CO)O[C@H]1n1cnc2c(N)nc(F)nc21 [Compound 16] | > 100 µM | 3 to 30 µM | – | – | – | –
C#C[C@]1(O)[C@H](n2cnc3c(N)ncnc32)O[C@](F)(COP(=O)(O)OP(=O)(O)OP(=O)(O)O)[C@H]1O [Compound 23] | – | – | < 3 µM | < 3 µM | < 3 µM | –
C#C[C@@]1(O)[C@H](O)[C@@H](CO)O[C@H]1n1cnc2c(N)nc(F)nc21 [Compound 4, (2R,3R,4R,5R)-2-(6-amino-2-fluoro-9H-purin-9-yl)-3-ethynyl-5-(hydroxymethyl)tetrahydrofuran-3,4-diol] | > 100 µM | 3 to 30 µM | – | – | – | –
C#C[C@]1(O)[C@H](n2cnc3c(N)ncnc32)O[C@](F)(COC(=O)C(C)C)[C@H]1OC(=O)C(C)C [Compound 3, (2S,3S,4R,5R)-5-(6-amino-9H-purin-9-yl)-4-ethynyl-2-fluoro-4-hydroxy-2-((isobutyryloxy)methyl)tetrahydrofuran-3-ylisobutyrate] | < 3 µM | < 3 µM | – | – | – | –
C#C[C@]1(O)[C@H](n2cc(C(N)=O)c3c(N)ncnc32)O[C@](F)(COP(=O)(O)OP(=O)(O)OP(=O)(O)O)[C@H]1O [Compound 50] | – | – | < 3 µM | 3 to 30 µM | < 3 µM | –
C#C[C@]1(OC(C)=O)[C@H](n2cnc3c(N)ncnc32)O[C@](F)(COC(C)=O)[C@H]1OC(C)=O [Compound 34, (2S,3S,4R,5R)-2-(acetoxymethyl)-5-(6-amino-9H-purin-9-yl)-4-ethynyl-2-fluorotetrahydrofuran-3,4-diyldiacetate] | – | – | – | – | – | EC50 [1, 5]: < 3 µM; EC50 (Human rhinovirus 1B; HeLa-OHIO cells, 33° C.): < 3 µM
C#C[C@]1(O)[C@H](n2cnc3c(N)ncnc32)O[C@](F)(COC(=O)CCCCCCCCC)[C@H]1O [Compound 44, ((2S,3S,4R,5R)-5-(6-amino-9H-purin-9-yl)-4-ethynyl-2-fluoro-3,4-dihydroxytetrahydrofuran-2-yl)methyldecanoate] | < 3 µM | < 3 µM | – | – | – | –
C#C[C@]1(O)[C@H](n2cnc3c(=O)[nH]cnc32)O[C@](F)(COP(=O)(O)OP(=O)(O)OP(=O)(O)O)[C@H]1O [Compound 56] | – | – | < 3 µM | < 3 µM | 3 to 30 µM | –
C#C[C@@]1(O)[C@H](O)[C@@H](COP(=O)(O)OP(=O)(O)OP(=O)(O)O)O[C@H]1n1cnc2c(N)nc(F)nc21 [Compound 17] | – | – | < 3 µM | < 3 µM | 3 to 30 µM | –
C#C[C@]1(O)[C@H](n2cc(C(N)=O)c3c(N)ncnc32)O[C@](F)(CO)[C@H]1O [Compound 10, 4-amino-7-((2R,3R,4S,5S)-3-ethynyl-5-fluoro-3,4-dihydroxy-5-(hydroxymethyl)tetrahydrofuran-2-yl)-7H-pyrrolo[2,3-d]pyrimidine-5-carboxamide] | 3 to 30 µM | – | – | – | – | EC50 (Human rhinovirus 1B; Rhinovirus A): > 100 µM
C#C[C@]1(O)[C@H](n2cnc3c(N)ncnc32)O[C@](F)(CO)[C@H]1OC(=O)CCCCCCCCC [Compound 39, (2S,3S,4R,5R)-5-(6-amino-9H-purin-9-yl)-4-ethynyl-2-fluoro-4-hydroxy-2-(hydroxymethyl)tetrahydrofuran-3-yldecanoate] | < 3 µM | < 3 µM | – | – | – | –
C#C[C@@]1(O)[C@H](O)[C@@H](COP(=O)(O)OP(=O)(O)OP(=O)(O)O)O[C@H]1n1cc(F)c2c(N)ncnc21 [Compound 58] | – | – | < 3 µM | < 3 µM | < 3 µM | –
C[C@]1(F)[C@H](n2cnc3c(N)ncnc32)O[C@](F)(COP(=O)(O)OP(=O)(O)OP(=O)(O)O)[C@H]1O [Compound 22] | – | – | < 3 µM | < 3 µM | 3 to 30 µM | –
(2S,3S,4R,5R)-5-(4-amino-5-fluoro-7H-pyrrolo[2,3-d]pyrimidin-7-yl)-4-ethynyl-2-fluoro-2-(hydroxymethyl)tetrahydrofuran-3,4-diol [Compound 31] | – | – | – | – | – | EC50 [1, 5]: < 3 µM; EC50 (Human rhinovirus 1B; HeLa-OHIO cells, 33° C.): < 3 µM
C#C[C@]1(O)[C@H](n2cnc3c(N)ncnc32)O[C@](F)(COC(=O)CCC)[C@H]1OC(=O)CCC [Compound 37, (2S,3S,4R,5R)-5-(6-amino-9H-purin-9-yl)-2-((butyryloxy)methyl)-4-ethynyl-2-fluoro-4-hydroxytetrahydrofuran-3-ylbutyrate] | < 3 µM | < 3 µM | – | – | – | –
C#C[C@]1(O)[C@H](n2cnc3c(N)ncnc32)O[C@](F)(CO)[C@H]1OC(=O)NCCC [Compound 49, (2S,3S,4R,5R)-5-(6-amino-9H-purin-9-yl)-4-ethynyl-2-fluoro-4-hydroxy-2-(hydroxymethyl)tetrahydrofuran-3-ylpropylcarbamate] | – | – | – | – | – | EC50 [1, 5]: 30 to 100 µM; EC50 (Human rhinovirus 1B; HeLa-OHIO cells, 33° C.): 3 to 30 µM
C#C[C@]1(O)[C@H](n2cnc3c(N)ncnc32)O[C@](F)(COC(C)=O)[C@H]1OC(C)=O [Compound 2, ((2S,3S,4R,5R)-3-acetoxy-5-(6-amino-9H-purin-9-yl)-4-ethynyl-2-fluoro-4-hydroxytetrahydrofuran-2-yl)methyl acetate] | < 3 µM | < 3 µM | – | – | – | –
C[C@]1(O)[C@H](n2cnc3c(N)ncnc32)O[C@](F)(COP(=O)(O)OP(=O)(O)OP(=O)(O)O)[C@H]1O [Compound 20] | – | – | < 3 µM | < 3 µM | 3 to 30 µM | –
C#C[C@@]1(O)[C@H](O)[C@@H](COP(=O)(O)OP(=O)(O)OP(=O)(O)O)O[C@H]1n1cnc2c(=O)[nH]cnc21 [Compound 35] | – | – | > 100 µM | < 3 µM | < 3 µM | –
C#C[C@@]1(O)[C@H](O)[C@@H](COP(=O)(O)OP(=O)(O)OP(=O)(O)O)O[C@H]1c1ccc2c(N)ncnn12 [Compound 52] | – | – | < 3 µM | < 3 µM | < 3 µM | –
C#C[C@]1(O)[C@H](n2cnc3c(N)ncnc32)O[C@](F)(CO)[C@H]1OC(=O)[C@@H](N)C(C)C [Compound 41, (2S,3S,4R,5R)-5-(6-amino-9H-purin-9-yl)-4-ethynyl-2-fluoro-4-hydroxy-2-(hydroxymethyl)tetrahydrofuran-3-yl L-valinate] | < 3 µM | < 3 µM | – | – | – | –
C#C[C@]1(O)[C@H](n2cnc3c(NC(=O)OC(C)(C)C)ncnc32)O[C@](F)(COC(c2ccccc2)(c2ccccc2)c2ccc(OC)cc2)[C@H]1OC(=O)CCCCCCC [Compound 40] | – | – | – | – | – | EC50 [1, 5]: < 3 µM; EC50 (Human rhinovirus 1B; HeLa-OHIO cells, 33° C.): < 3 µM
C#C[C@]1(OC(=O)CC)[C@H](n2cnc3c(N)ncnc32)O[C@](F)(COC(=O)CC)[C@H]1OC(=O)CC [Compound 38, (2S,3S,4R,5R)-5-(6-amino-9H-purin-9-yl)-4-ethynyl-2-fluoro-2-((propionyloxy)methyl)tetrahydrofuran-3,4-diyldipropionate] | < 3 µM | < 3 µM | – | – | – | –
C#C[C@@]1(O)[C@H](O)[C@@H](CO)O[C@H]1c1cnc2c(N)ncnn12 [Compound 27, (2S,3R,4R,5R)-2-(4-aminoimidazo[2,1-f][1,2,4]triazin-7-yl)-3-ethynyl-5-(hydroxymethyl)tetrahydrofuran-3,4-diol] | < 3 µM | < 3 µM | – | – | – | –
C#C[C@]1(O)[C@H](n2cnc3c(NC(=O)OC(C)(C)C)ncnc32)O[C@](F)(COC(c2ccccc2)(c2ccccc2)c2ccc(OC)cc2)[C@H]1OC(=O)CCCCCCCCCCC [Compound 42, (2S,3S,4R,5R)-5-(6-((tert-butoxycarbonyl)amino)-9H-purin-9-yl)-4-ethynyl-2-fluoro-4-hydroxy-2-(((4-methoxyphenyl)diphenylmethoxy)methyl)tetrahydrofuran-3-yl-dodecanoate] | < 3 µM | < 3 µM | – | – | – | –
C#C[C@]1(O)[C@H](n2ccc3c(N)ncnc32)O[C@](F)(CO)[C@H]1O [Compound 6, (2S,3S,4R,5R)-5-(4-amino-7H-pyrrolo[2,3-d]pyrimidin-7-yl)-4-ethynyl-2-fluoro-2-(hydroxymethyl)tetrahydrofuran-3,4-diol] | 3 to 30 µM | < 3 µM | – | – | – | –
C#C[C@]1(O)[C@H](n2cnc3c(N)ncnc32)O[C@](F)(COC(=O)CC)[C@H]1OC(=O)CC [Compound 36] | < 3 µM | < 3 µM | – | – | – | –
